Experimental findings from patent US12540141B2, “Spiropyrrolidine derived antiviral agents” (priority 2020, dated 2026) are described below.

The target in this assay is SARS-CoV-2 3CL-protease (Severe acute respiratory syndrome coronavirus 2, UniProt P0DTD1). The experiment in a line: SARS-CoV-2 3C-Like (3CL) Protease Fluorescence Assay (FRET). It counts as biochemical. The settings on record: SARS-CoV-2 3CL-protease 10 nM, 30 min preincubation at RT, substrate 40 μM.
The term IC50 denotes the concentration needed to halve the response being measured. Read a high IC50 as weaker potency. `COC(=O)c1ccc2c(c1)[C@@]1(C[C@@H](C#N)N(C(=O)[C@H](CC(C)C)N(C)C(=O)c3cc4c(F)cc(F)cc4[nH]3)C1)C(=O)N2` [Example 501, methyl (3R,5′S)-5′-cyano-1′-(N-(4,6-difluoro-1H-indole-2-carbonyl)-N-methyl-L-leucyl)-2-oxospiro[indoline-3,3′-pyrrolidine]-5-carboxylate] registered a half-maximal inhibitory concentration (IC50) of less than 100 nM.

On to `CN(C(=O)C(F)(F)c1cccnc1)[C@@H](CC(C)(C)F)C(=O)N1C[C@]2(C[C@H]1C#N)C(=O)Nc1ccc(Cl)cc12` [Example 482], for which the IC50 is less than 100 nM.

Consider `CC(C)C[C@@H](C(=O)N1C[C@]2(C[C@H]1C#N)C(=O)Nc1ccccc12)N(C)C(=O)c1ccn[nH]1` [Example 202], for which the IC50 lay in the range of 100 to 1000 nM.

As for `CC(C)C[C@@H](C(=O)N1C[C@]2(C[C@H]1C#N)C(=O)Nc1ccccc12)N(C)C(=O)c1cnc2ccccc2n1` [Example 298], the IC50 was 100 to 1000 nM.

Consider `CC(C)C[C@@H](C(=O)N1C[C@]2(C[C@H]1C(=O)CO)C(=O)Nc1ccccc12)N(C)C(=O)c1cc2c(F)cc(F)c(F)c2[nH]1` [Example 158], for which the IC50 was more than 1000 nM.

For the molecule `CC(C)C[C@@H](C(=O)N1C[C@]2(C[C@H]1C#N)C(=O)Nc1ccccc12)N(C)C(=O)c1cc(F)c2nn(C3CC3)cc2c1` [Example 311], the IC50 lay within 100 to 1000 nM.

Turning to `CC(C)C[C@@H](C(=O)N1C[C@]2(C[C@H]1C#N)C(=O)Nc1ccccc12)N(C)C(=O)c1cccc2cccnc12` [Example 296], the half-inhibitory concentration (IC50) lay in the range of 100 to 1000 nM.

On to `CC(C)C[C@@H](C(=O)N1C[C@]2(C[C@H]1C#N)C(=O)Nc1ccccc12)N(C)C(=O)c1nc2ccccc2n1C` [Example 282], for which the IC50 lay within 100 to 1000 nM.

Turning to `COc1ccnc(C(=O)N(C)[C@@H](CC(C)C)C(=O)N2C[C@]3(C[C@H]2C#N)C(=O)Nc2ccccc23)c1` [Example 192], the half-maximal inhibitory concentration (IC50) was 100 to 1000 nM.

For `CC(C)C[C@@H](C(=O)N1C[C@]2(C[C@H]1C#N)C(=O)Nc1ccccc12)N(C)C(=O)c1cc(OC2CC2)c2ncccc2c1` [Example 312], the IC50 is less than 100 nM.

Molecule `CC(C)C[C@@H](C(=O)N1C[C@]2(C[C@H]1C#N)C(=O)Nc1ccccc12)N(C)C(=O)c1nnc(-c2ccc(F)cc2)o1` [Example 355] displayed an IC50 of less than 100 nM.

Regarding `CC(C)C[C@@H](C(=O)N1C[C@]2(C[C@H]1C(=O)O)C(=O)Nc1ccc(Cl)cc12)N(C)C(=O)c1cc2c(F)cc(F)cc2[nH]1` [Example 497, (3R,5′S)-5-chloro-1′-(N-(4,6-difluoro-1H-indole-2-carbonyl)-N-methyl-L-leucyl)-2-oxospiro[indoline-3,3′-pyrrolidine]-5′-carboxylic acid], the IC50 is more than 1000 nM.

Turning to `CC(C)C[C@@H](C(=O)N1C[C@]2(C[C@H]1C#N)C(=O)Nc1ccccc12)N(C)C(=O)c1cncc(F)c1` [Example 196], the IC50 is less than 100 nM.

The molecule `N#C[C@@H]1C[C@@]2(CN1C(=O)[C@H](CC1CC1)NC(=O)c1cccc(OC(F)(F)F)c1)C(=O)Nc1ccc(Cl)cc12` [Example 520] displayed an IC50 of less than 100 nM.

Molecule `CC(C)C[C@@H](C(=O)N1C[C@]2(C[C@H]1C#N)C(=O)Nc1ccccc12)N(C)C(=O)c1ccc2ccccc2n1` [Example 211] gave an IC50 of 100 to 1000 nM.

Regarding `C[C@@H](C(=O)N(C)[C@@H](CC(C)(C)C)C(=O)N1C[C@]2(C[C@H]1C#N)C(=O)Nc1ccccc12)c1cnn(C)c1` [Example 372], the half-maximal inhibitory concentration (IC50) was less than 100 nM.

As for `CC(C)C[C@@H](C(=O)N1C[C@]2(C[C@H]1C#N)C(=O)Nc1ccccc12)N(C)C(=O)c1cc(Cl)c(F)cc1F` [Example 171], the IC50 is less than 100 nM.

For the molecule `COc1ccc(C(=O)N(C)[C@@H](CC(C)C)C(=O)N2C[C@]3(C[C@H]2C#N)C(=O)Nc2ccccc23)nc1` [Example 193], the IC50 lay in the range of 100 to 1000 nM.

As to `CC(C)C[C@@H](C(=O)N1C[C@]2(C[C@H]1C#N)C(=O)Nc1ccccc12)N(C)C(=O)c1nc2ccccc2s1` [Example 206], the IC50 lay in the range of 100 to 1000 nM.

`CC(C)C[C@@H](C(=O)N1C[C@]2(C[C@H]1C#N)C(=O)Nc1ccccc12)N(C)C(=O)c1ccc(-c2ccccc2)cc1` [Example 277] showed an IC50 of 100 to 1000 nM.

`CN(C(=O)CCCN1CCOCC1)[C@@H](CC(C)(C)F)C(=O)N1C[C@]2(C[C@H]1C#N)C(=O)Nc1ccccc12` [Example 538] yielded an IC50 of more than 1000 nM.

Molecule `Cc1cc2cc(C(=O)N[C@@H](CC(C)(C)C)C(=O)N3C[C@]4(C[C@H]3C#N)C(=O)Nc3ccccc34)cc(Cl)c2nc1C` [Example 147] gave an IC50 of less than 100 nM.

`CC(C)C[C@@H](C(=O)N1C[C@]2(C[C@H]1C#N)C(=O)Nc1ccc(-c3ccccn3)cc12)N(C)C(=O)c1cc2c(F)cc(F)cc2[nH]1` [Example 516] registered an IC50 of less than 100 nM.

In turn, `Cc1cc2cc(C(=O)N(C)[C@@H](CC(C)C)C(=O)N3C[C@]4(C[C@H]3C#N)C(=O)Nc3ccccc34)cc(OC3CC3)c2nc1C` [Example 323] registered an IC50 of less than 100 nM.

`CN(C(=O)C1(c2ccccn2)CC1)[C@@H](CC(C)(C)F)C(=O)N1C[C@]2(C[C@H]1C#N)C(=O)Nc1ccc(Cl)cc12` [Example 478]: the IC50 is less than 100 nM.

The molecule `N#C[C@@H]1C[C@@]2(CN1C(=O)[C@H](CC1CC1)NC(=O)c1cccc(OC(F)(F)F)c1)C(=O)Nc1ccc(F)cc12` [Example 526] displayed an IC50 of less than 100 nM.

For the molecule `CC(C)(C)C[C@H](NC(=O)c1ccc2ncc(C(F)(F)F)cc2c1)C(=O)N1C[C@]2(C[C@H]1C#N)C(=O)Nc1ccccc12` [Example 134], the IC50 lay within 100 to 1000 nM.

The molecule `CC(C)C[C@@H](O)C(=O)N(C)[C@@H](CC1CC1)C(=O)N1C[C@]2(C[C@H]1C#N)C(=O)Nc1ccccc12` [Example 424] came in with an IC50 of less than 100 nM.

The molecule `CC(C)C[C@@H](C(=O)N1C[C@]2(C[C@H]1C#N)C(=O)Nc1ccccc12)N(C)C(=O)c1ccc(OC(F)(F)F)c(F)c1` [Example 179] displayed an IC50 of less than 100 nM.

Regarding `CC(C)C[C@@H](C(=O)N1C[C@]2(C[C@H]1C#N)C(=O)Nc1ccc(-c3cccnc3)cc12)N(C)C(=O)c1cc2c(F)cc(F)cc2[nH]1` [Example 506], the IC50 was less than 100 nM.

`CC(C)C[C@@H](C(=O)N1C[C@]2(C[C@H]1C#N)C(=O)Nc1ccccc12)N(C)C(=O)c1cc(Cl)cc(Cl)c1` [Example 172] had an IC50 of less than 100 nM.

As to `CN(C(=O)c1cc2c(F)cc(F)c(F)c2[nH]1)[C@@H](CC(C)(C)O)C(=O)N1C[C@]2(C[C@H]1C#N)C(=O)Nc1ccccc12` [Example 444], the IC50 was in the range of 100 to 1000 nM.

The molecule `CC(C)C[C@@H](C(=O)N1C[C@]2(C[C@H]1C#N)C(=O)Nc1ccccc12)N(C)C(=O)c1cc2ccccn2n1` [Example 247] registered an IC50 of 100 to 1000 nM.

For the molecule `CC(C)C[C@@H](C(=O)N1C[C@]2(C[C@H]1C#N)C(=O)Nc1ccccc12)N(C)C(=O)c1ccnc2ccccc12` [Example 294], the 50% inhibitory concentration (IC50) was less than 100 nM.

As to `CC(C)C[C@@H](C(=O)N1C[C@]2(C[C@H]1C#N)C(=O)Nc1ccc(-n3cc(C4CC4)nn3)cc12)N(C)C(=O)c1cc2c(F)cc(F)cc2[nH]1` [Example 505, N—((S)-1-((3R,5′S)-5′-cyano-5-(4-cyclopropyl-1H-1,2,3-triazol-1-yl)-2-oxospiro[indoline-3,3′-pyrrolidin]-1′-yl)-4-methyl-1-oxopentan-2-yl)-4,6-difluoro-N-methyl-1H-indole-2-carboxamide], the IC50 was less than 100 nM.

Take `CN(C(=O)c1cnc(C(C)(C)C)[nH]1)[C@@H](CC1CC1)C(=O)N1C[C@]2(C[C@H]1C#N)C(=O)Nc1ccccc12` [Example 410]: the IC50 was less than 100 nM.
